Where “and” joins values, the source holds several entries; their conditions need not be identical. Identical values can stand only once. Like-named read-outs stand apart in the source and are kept apart here.
Assays:
Assay type in all cases: cell-based, human
[1] = system: HL-60; experiment: Cell proliferation assay: GI50
How it was run: (§1)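 Suspension cells at 1 × 10^6 cells/mL were treated in triplicate, then incubated 1–3 h with MTS reagent (CellTiter 96 AQueous One) for colorimetric viable-cell read-out. After medium-only background subtraction, absorbance was expressed as % of untreated cells, and GI50 was fitted by non-linear regression.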

[2] = system: ML-2; experiment: Cell proliferation assay: GI50
How it was run: as §1

[3] = system: MOLM-13; experiment: Cell proliferation assay: GI50
How it was run: as §1

[4] = system: MV4-11; experiment: Cell proliferation assay: GI50
How it was run: as §1

[5] = system: HL-60; experiment: Differentiation-apoptosis assay, CD11b / annexin-V / Sytox Green / myeloid markers flow cytometry; parameters: Cell viability (%): concentration or dose not given beside the values; CD11b levels: unit not given here
How it was run: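 HL-60 cells were stained for the myeloid differentiation marker CD11b, with annexin-V and Sytox Green marking apoptosis and cell death. Cells were washed in PBS and resuspended at 1 × 10^6 cells/mL in binding buffer; marker staining of 1 million cells was for 30 min at room temperature in the dark, followed by red-cell lysis. Readout was flow cytometry.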

[6] = system: ML-2; experiment: as above; parameters: Cell viability: concentration or dose not given beside the values; CD11b levels: unit not given here
How it was run: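 Differentiation and apoptosis were read by flow cytometry after 15 min dark staining at room temperature with APC-CD11b plus FITC annexin-V, 1 × 10^6 cells/mL in binding buffer. Myeloid markers CD13, HLA-DR and CD14 were stained in separate runs for 30 min, followed by lysis and washing.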

[7] = HL-60, 48 h treatment, replicates 1-3 (Suppl. Fig. 5A)
[8] = HL-60, daily treatment, time 0 days, replicates 1-3 (Figure 2B)
[9] = HL-60, daily treatment, time 2 days, replicates 1-3 (Figure 2B)
[10] = HL-60, daily treatment, time 4 days, replicates 1-3 (Figure 2B)
[11] = HL-60, daily treatment, time 6 days, replicates 1-3 (Figure 2B)
[12] = HL-60, daily treatment, time 8 days, replicates 1-3 (Figure 2B)
[13] = ML-2, 48 h, replicates (Fig 4A)
[14] = ML-2, daily treatment, time 0 days, replicates 1-3 (Figure 2B)
[15] = ML-2, daily treatment, time 2 days, replicates 1-3 (Figure 2B)
[16] = ML-2, daily treatment, time 4 days, replicates 1-3 (Figure 2B)
[17] = ML-2, daily treatment, time 6 days, replicates 1-3 (Figure 2B)
[18] = ML-2, daily treatment, time 8 days, replicates 1-3 (Figure 2B)

COc1cc2nc(-c3ccc(C)o3)cc(NCC3CCN(c4ncc(C(=O)NO)cn4)CC3)c2cc1OC [CM-444, 2-[4-[[[6,7-dimethoxy-2-(5-methyl-2-furyl)-4-quinolyl]amino]methyl]-1-piperidyl]pyrimidine-5-carbohydroxamic acid]
GI50 ([1]; HL-60, replicates 1-3, read-out: GI50): 987 nM and 1020 nM
GI50 ([1]; Homo sapiens, HL-60, 48 h, 48 h, read-out: HL-60 GI50): 1090 nM
GI50 ([1]; Homo sapiens, HL-60, HL-60, replicates 1-3, read-out: GI50): 1260 nM
GI50 ([2]; Homo sapiens, ML-2, ML-2, replicates 1-3): 988 nM
GI50 ([2]; ML-2, replicates 1-3): 1150 nM and 956 nM
GI50 ([3]; Homo sapiens, MOLM-13, MOLM-13, replicates 1-3): 1370 nM
GI50 ([3]; MOLM-13, replicates 1-3): 1120 nM and 883 nM
GI50 ([4]; Homo sapiens, MV4-11, 48 h): 621 nM
GI50 ([4]; Homo sapiens, MV4-11, MV4-11, replicates 1-3): 458 nM
GI50 ([4]; MV4-11, replicates 1-3): 765 nM and 641 nM
percentage of CD11b ([5]; HL-60, 270 nM CM-444 or 300 nM CM-1758 daily for 4 days, before injection): > 90%
CD11b (%) ([5]; HL-60, 48 h): 74.3%
CD13 (%) ([5]; HL-60, 48 h): 100%
CD14 (%) ([5]; HL-60, 48 h): 21.5%
HLA-DR (%) ([5]; HL-60, 48 h): 9.16%
CD11b (%) [5, 7]: 71.2% and 75.4% and 68.7%
Cell viability (%) [5, 7]: 78.5% and 72.1% and 82.5%
differentiation level (CD11b) ([5]; HL-60, after 6–8 days of treatment): ~90%
Annexin V (%) Replicate 1 ([5]; HL-60, daily 25% GI50, 48 h): 0.75%
Annexin V (%) Replicate 2 ([5]; HL-60, daily 25% GI50, 48 h): 0.49%
Annexin V (%) Replicate 3 ([5]; HL-60, daily 25% GI50, 48 h): 0.44%
CD11b (%) Replicate 1 ([5]; HL-60, daily 25% GI50, 48 h): 86.24%
CD11b (%) Replicate 2 ([5]; HL-60, daily 25% GI50, 48 h): 75.15%
CD11b (%) Replicate 3 ([5]; HL-60, daily 25% GI50, 48 h): 76.65%
Annexin-V (%) [5, 8]: 0% and 4.96% and 3.21%
CD11b (%) [5, 8]: 13.33% and 12.5% and 10.8%
Annexin-V (%) [5, 9]: 6.83% and 2.49% and 5.41%
CD11b (%) [5, 9]: 79.45% and 76.2% and 73.9%
Annexin-V (%) [5, 10]: 0% and 2.98% and 3.14%
CD11b (%) [5, 10]: 95.2% and 93.5% and 90.4%
Annexin-V (%) [5, 11]: 9.4% and 2.53% and 5.87%
CD11b (%) [5, 11]: 93% and 97.3% and 95.8%
Annexin-V (%) [5, 12]: 0% and 4.09% and 6.81%
CD11b (%) [5, 12]: 98.61% and 98.5% and 97.1%
CD11b (%) ([5]; HL-60 cell line, replicates 1-3 (Figure 2A)): 88.3% and 85.7% and 88.0%
CD11b levels ([5]; HL-60 treated daily for 48 h, replicates (Fig 6D)): 76.5 and 85.9 and 92.1
percentage of CD11b ([6]; ML-2, 260 nM CM-444 or 210 nM CM-1758 daily for 4 days, before injection): > 90%
CD11b (%) ([6]; ML-2, 48 h): 80.1%
CD13 (%) ([6]; ML-2, 48 h): 100%
CD14 (%) ([6]; ML-2, 48 h): 5.20%
HLA-DR (%) ([6]; ML-2, 48 h): 35.7%
CD11b [6, 13]: 89.5% and 75.9% and 74.5%
Cell viability [6, 13]: 80.4% and 75.1% and 78.2%
differentiation level (CD11b) ([6]; ML-2, after 6–8 days of treatment): ~90%
Annexin-V (%) [6, 14]: 0% and 1.81% and 2.3%
CD11b (%) [6, 14]: 9.3% and 9.32% and 7.24%
Annexin-V (%) [6, 15]: 0% and 8.27% and 5.87%
CD11b (%) [6, 15]: 24.52% and 30.8% and 32.5%
Annexin-V (%) [6, 16]: 7.16% and 8.18% and 7.5%
CD11b (%) [6, 16]: 47.58% and 64.3% and 58.4%
Annexin-V (%) [6, 17]: 12.1% and 4.47% and 9.8%
CD11b (%) [6, 17]: 89.87% and 81.3% and 87.3%
Annexin-V (%) [6, 18]: 10.64% and 10.25% and 11.25%
CD11b (%) [6, 18]: 92.1% and 91.7% and 93.4%
CD11b (%) ([6]; ML-2 cell line, replicates 1-3 (Figure 2A)): 86.3% and 76.9% and 74.7%
CD11b levels ([6]; ML-2 treated daily for 48 h, replicates (Fig 6E)): 70.9 and 75.6 and 72.7

Reference: article PMC11219871, “Epigenetic-based differentiation therapy for Acute Myeloid Leukemia” (Nature Communications, 2024)
